Like-named read-outs stand apart in the source and are kept apart here.

The record followed here is patent publication US20230077362A1 (CORTEVA AGRISCIENCE LLC, priority 2019, published 2023).

Data set [1] deals with Beet Armyworm (Spodoptera exigua) ("BAW"), second instar larvae. In words: Bioassay on beet armyworm (BAW), 128-well diet tray assay. The data set is classed as in vivo. The following applies: for pest or weed control at 50 µg/cm2: Spodoptera exigua; for BAW rating: C = not tested, D = no activity noticed. The method, boiled down:
(§1)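 Second-instar larvae on diet in 128-well trays, covered and held at 25° C, 14:10 light-dark, for five to seven days. Percent mortality scored per well and averaged over eight wells; activity reported as a rating category.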

Data set [2] relates to Cabbage Looper (Trichoplusia ni) ("CL"), second instar larvae. Kind of data set: Bioassay on cabbage looper (CL), 128-well diet tray assay. The following applies: for CL rating: C = not tested, D = no activity noticed. The data set is classed as in vivo. The method, boiled down:
as §1

Where [3] appears, read: Trichoplusia ni, read-out: CL rating.
Where [4] appears, read: read-out: BAW (Biological Results, rating).
Where [5] appears, read: Trichoplusia ni, read-out: CL (Biological Results, rating).

Turning to `COC(C)c1ccc(C)cc1N1C(=O)CS/C1=N\C(=O)Nc1ccc(-n2cnc(-c3ccc(OC(F)(F)F)cc3)n2)cc1F` (stereo not drawn) [Compound J685, (Z)-1-(2-Fluoro-4-(3-(4-(trifluoromethoxy)phenyl)-1H-1,2,4-triazol-1-yl)phenyl)-3-(3-(2-(1-methoxyethyl)-5-methylphenyl)-4-oxothiazolidin-2-ylidene)urea], the pest or weed control at 50 µg/cm2 in data set [1] (read-out: BAW rating) and in data set [2] (setting [3]) was 50 to 100% throughout.

As for `CCc1ccc(COCC(F)(F)F)c(N2C(=O)CS/C2=N\C(=O)Nc2ccc(-c3ncn(-c4ccc(C(F)(F)F)cc4)n3)cc2F)c1` [Compound J642], the BAW rating result in data set [1] (Table ABC, species BAW) is listed as “A (50-100)”. Besides, in data set [2] (Table ABC, species CL), the CL rating result is recorded as “A (50-100)”.

As to `CC(C)c1ccc(N(C)C)cc1N1C(=O)CS/C1=N\C(=O)Nc1ccc(-c2nc(-c3ccc(OC(F)(F)F)cc3)no2)cc1F` [Compound J435, (Z)-1-(3-(5-(dimethylamino)-2-isopropylphenyl)-4-oxothiazolidin-2-ylidene)-3-(2-fluoro-4-(3-(4-(trifluoromethoxy)phenyl)-1,2,4-oxadiazol-5-yl)phenyl)urea], the pest or weed control at 50 µg/cm2 in data set [1] (read-out: BAW rating) and in data set [2] (setting [3]) was 50 to 100% in each case.

For the compound `Cc1ccc(COCC(F)(F)F)c(N2C(=O)CS/C2=N\C(=O)Nc2ccc(-c3ncn(-c4ccc(OC(F)(F)F)cn4)n3)cc2C#N)c1` [Compound J265, (Z)-1-(2-Cyano-4-(1-(5-(trifluoromethoxy)pyridin-2-yl)-1H-1,2,4-triazol-3-yl)phenyl)-3-(3-(5-methyl-2-((2,2,2-trifluoroethoxy)methyl)phenyl)-4-oxothiazolidin-2-ylidene)urea], the pest or weed control at 50 µg/cm2 in data set [1] (setting [4]) and in data set [2] (setting [5]) was 50 to 100% throughout.

As for `Cc1ccc(-n2cnc(-c3ccc(NC(=O)/N=C4\SCC(=O)N4c4cc(N(C)C)ccc4C(C)C)c(F)c3)n2)cc1` [Compound J150, (Z)-1-(3-(5-(Dimethylamino)-2-isopropylphenyl)-4-oxothiazolidin-2-ylidene)-3-(2-fluoro-4-(1-(p-tolyl)-1H-1,2,4-triazol-3-yl)phenyl)urea], the pest or weed control at 50 µg/cm2 in data set [1] (setting [4]) and in data set [2] (setting [5]) was 50 to 100% each time.

Take `COC(C)c1ccc(C)cc1N1C(=O)CS/C1=N\C(=O)Nc1ccc(-c2ncn(-c3ccc(OC(F)(F)F)cc3)n2)cc1C#N` (stereo not drawn) [Compound J228, (Z)-1-(2-Cyano-4-(1-(4-(trifluoromethoxy)phenyl)-1H-1,2,4-triazol-3-yl)phenyl)-3-(3-(2-(1-methoxyethyl)-5-methylphenyl)-4-oxothiazolidin-2-ylidene)urea]: the pest or weed control at 50 µg/cm2 in data set [1] (setting [4]) and in data set [2] (setting [5]) was 50 to 100% throughout.

Turning to `CC(=O)c1cc(-c2ncn(-c3ccc(OC(F)(F)F)cc3)n2)ccc1NC(=O)/N=C1\SCC(=O)N1c1cc(C)ccc1C(C)C` [Compound J395, (Z)-1-(2-Acetyl-4-(1-(4-(trifluoromethoxy)phenyl)-1H-1,2,4-triazol-3-yl)phenyl)-3-(3-(2-isopropyl-5-methylphenyl)-4-oxothiazolidin-2-ylidene)urea], the pest or weed control at 50 µg/cm2 in data set [1] (read-out: BAW rating) and in data set [2] (setting [3]) was 50 to 100% each time.

Turning to `CCCOc1ccc(C)cc1N1C(=O)CS/C1=N\C(=O)Nc1ccc(-c2ncn(-c3ccc(OC(F)(F)F)cc3)n2)cc1F` [Compound J125, (Z)-1-(2-Fluoro-4-(1-(4-(trifluoromethoxy)phenyl)-1H-1,2,4-triazol-3-yl)phenyl)-3-(3-(5-methyl-2-propoxyphenyl)-4-oxothiazolidin-2-ylidene)urea], the pest or weed control at 50 µg/cm2 in data set [1] (setting [4]) and in data set [2] (setting [5]) was 50 to 100% throughout.

As for `CN(C)c1ccc(OCC(F)(F)F)c(N2C(=O)CS/C2=N\C(=O)Nc2ccc(-c3ncn(-c4ccc(OC(F)(F)F)cn4)n3)cc2F)c1` [Compound J263, (Z)-1-(3-(5-(Dimethylamino)-2-(2,2,2-trifluoroethoxy)phenyl)-4-oxothiazolidin-2-ylidene)-3-(2-fluoro-4-(1-(5-(trifluoromethoxy)pyridin-2-yl)-1H-1,2,4-triazol-3-yl)phenyl)urea], the pest or weed control at 50 µg/cm2 in data set [1] (setting [4]) and in data set [2] (setting [5]) was 50 to 100% in each case.

Consider `CCC(OC)c1ccc(C)cc1N1C(=O)CS/C1=N\C(=O)Nc1ccc(-c2ncn(-c3ccc(OC(F)(F)F)cc3)n2)cc1F` (stereo not drawn) [Compound J421], for which the pest or weed control at 50 µg/cm2 in data set [1] (read-out: BAW rating) and in data set [2] (setting [3]) was 50 to 100% throughout.

`Cc1ccc(C(C)C)c(N2C(=O)CS/C2=N\C(=O)Nc2ccc(-c3cn(-c4ccc(OC(F)(F)F)cc4)cn3)cc2F)c1` [Compound J473, (Z)-1-(2-Fluoro-4-(1-(4-(trifluoromethoxy)phenyl)-1H-imidazol-4-yl)phenyl)-3-(3-(2-isopropyl-5-methylphenyl)-4-oxothiazolidin-2-ylidene)urea]: the pest or weed control at 50 µg/cm2 in data set [1] (read-out: BAW rating) and in data set [2] (setting [3]) was 50 to 100% each time.

For `CC(C)c1ccc(Cl)cc1N1C(=O)CS/C1=N\C(=O)Nc1ccc(-c2ncn(-c3ccc(OC(F)(F)F)cc3)n2)cc1F` [Compound J46, (Z)-1-(3-(5-Chloro-2-isopropylphenyl)-4-oxothiazolidin-2-ylidene)-3-(2-fluoro-4-(1-(4-(trifluoromethoxy)phenyl)-1H-1,2,4-triazol-3-yl)phenyl)urea], the pest or weed control at 50 µg/cm2 in data set [1] (setting [4]) and in data set [2] (setting [5]) was 50 to 100% each time.

Turning to `CC(C)c1ccc(C#N)cc1N1C(=O)CS/C1=N\C(=O)Nc1ccc(-c2ncn(-c3ccc(S(=O)(=O)C(F)(F)F)cc3)n2)cc1C#N` [Compound J413, (Z)-1-(3-(5-Cyano-2-isopropylphenyl)-4-oxothiazolidin-2-ylidene)-3-(2-cyano-4-(1-(4-((trifluoromethyl)sulfonyl)phenyl)-1H-1,2,4-triazol-3-yl)phenyl)urea], the pest or weed control at 50 µg/cm2 in data set [1] (read-out: BAW rating) and in data set [2] (setting [3]) was 50 to 100% in each case.

Consider `CCCc1ccc(N(C)C)cc1N1C(=O)CS/C1=N\C(=O)Nc1ccc(-c2ncn(-c3ccc(OC(F)(F)F)cn3)n2)cc1C` [Compound J254, (Z)-1-(3-(5-(Dimethylamino)-2-propylphenyl)-4-oxothiazolidin-2-ylidene)-3-(2-methyl-4-(1-(5-(trifluoromethoxy)pyridin-2-yl)-1H-1,2,4-triazol-3-yl)phenyl)urea], for which the pest or weed control at 50 µg/cm2 in data set [1] (setting [4]) and in data set [2] (setting [5]) was 50 to 100% each time.

Regarding `CC(C)c1cc(F)c(N(C)C)cc1N1C(=O)CS/C1=N\C(=O)Nc1ccc(-n2cnc(-c3ccc(OC(F)(F)F)cc3)n2)cc1` [Compound J410, (Z)-1-(3-(5-(Dimethylamino)-4-fluoro-2-isopropylphenyl)-4-oxothiazolidin-2-ylidene)-3-(4-(3-(4-(trifluoromethoxy)phenyl)-1H-1,2,4-triazol-1-yl)phenyl)urea], the pest or weed control at 50 µg/cm2 in data set [1] (read-out: BAW rating) and in data set [2] (setting [3]) was 50 to 100% each time.

As for `Cc1ccc(-c2ccco2)c(N2C(=O)CS/C2=N\C(=O)Nc2ccc(-c3ncn(-c4ccc(OC(F)(F)F)cc4)n3)cc2F)c1` [Compound J489, (Z)-1-(2-Fluoro-4-(1-(4-(trifluoromethoxy)phenyl)-1H-1,2,4-triazol-3-yl)phenyl)-3-(3-(2-(furan-2-yl)-5-methylphenyl)-4-oxothiazolidin-2-ylidene)urea], the pest or weed control at 50 µg/cm2 in data set [1] (read-out: BAW rating) and in data set [2] (setting [3]) was 50 to 100% throughout.

One may read the mortality as the share of the test organisms that died. As to `Cc1ccc(COCC(F)(F)F)c(N2C(=O)CS/C2=N\C(=O)Nc2ccc(-c3n[nH]c(-c4ccccc4)n3)cc2)c1` [Compound J802, (Z)-1-(3-(5-Methyl-2-((2,2,2-trifluoroethoxy)methyl)phenyl)-4-oxothiazolidin-2-ylidene)-3-(4-(5-phenyl-1H-1,2,4-triazol-3-yl)phenyl)urea], the “BAW rating (% control or mortality class)” value in data set [1] (Table ABC, species BAW, 128-well diet tray assay, second instar larvae) is on record as “A (50-100)”. In data set [2] (Trichoplusia ni, Table ABC, species CL, 128-well diet tray assay, second instar larvae, read-out: CL rating (% control or mortality class)), the mortality at 50 µg/cm2 lay within 50 to 100%.

As for `Cc1ccc(COCC(F)F)c(N2C(=O)CS/C2=N\C(=O)Nc2ccc(-c3ncn(-c4ccc(OC(F)(F)F)cc4)n3)cc2C)c1` [Compound J420], the BAW rating entry in data set [1] (Table ABC, species BAW) is on record as “A (50-100)”. Further, the CL rating entry in data set [2] (Table ABC, species CL) is listed as “A (50-100)”.

For the compound `Cc1ccc(OCCC(F)(F)F)c(N2C(=O)CS/C2=N\C(=O)Nc2ccc(-c3ncn(-c4ccc(S(=O)(=O)C(F)(F)F)cc4)n3)cc2C#N)c1` [Compound J402, (Z)-1-(2-cyano-4-(1-(4-((trifluoromethyl)sulfonyl)phenyl)-1H-1,2,4-triazol-3-yl)phenyl)-3-(3-(5-methyl-2-(3,3,3-trifluoropropoxy)phenyl)-4-oxothiazolidin-2-ylidene)urea], the pest or weed control at 50 µg/cm2 in data set [1] (read-out: BAW rating) and in data set [2] (setting [3]) was 50 to 100% in each case.

On to `CCN(CC)c1ccc(C(C)C)c(N2C(=O)CS/C2=N\C(=O)Nc2ccc(-c3ncn(-c4ccc(OC(F)(F)F)cc4)n3)cc2C)c1` [Compound J129, (Z)-1-(3-(5-(Diethylamino)-2-isopropylphenyl)-4-oxothiazolidin-2-ylidene)-3-(2-methyl-4-(1-(4-(trifluoromethoxy)phenyl)-1H-1,2,4-triazol-3-yl)phenyl)urea], for which the pest or weed control at 50 µg/cm2 in data set [1] (setting [4]) and in data set [2] (setting [5]) was 50 to 100% in each case.

Turning to `COc1cc(-c2ncn(-c3ccc(OC(F)(F)F)cc3)n2)ccc1NC(=O)/N=C1\SCC(=O)N1c1cc(N(C)C)ccc1C(C)C` [Compound J89, (Z)-1-(3-(5-(Dimethylamino)-2-isopropylphenyl)-4-oxothiazolidin-2-ylidene)-3-(2-methoxy-4-(1-(4-(trifluoromethoxy)phenyl)-1H-1,2,4-triazol-3-yl)phenyl)urea], the pest or weed control at 50 µg/cm2 in data set [1] (setting [4]) and in data set [2] (setting [5]) was 50 to 100% each time.
